Values quoted from earlier work, collected in paper PMC4686915, “An engineered scorpion toxin analogue with improved Kv1.3 selectivity displays reduced conformational flexibility” (Scientific Reports, 2015).
Like-named read-outs stand apart in the source and are kept apart here.

Assays:
[1] = target: Kv1.2
Excerpt: (§1) Anuroctoxin (AnTx, αKTx 6.12) is a peptide toxin of 35 amino acids with a molecular weight of 4082.8, stabilized by four disulphide bridges, which was isolated by our workgroup from the venom of the scorpion Anuroctonus phaiodactylus. […] Our aim was to improve the selectivity of the wild-type toxin for Kv1.3 by site-directed changes in the primary sequence of the peptide. || Figure 1 Sequence comparison of Kv1.2- and Kv1.3-selective toxins. The aligned primary sequences are shown for toxins for which the affinities for both Kv1.2 and Kv1.3 channels were determined. Toxins were classified as Kv1.2-selective, non-selective or Kv1.3-selective based on the ratio of the determined Kd values for the two channels. TEXT PRINTED IN THE PICTURE: maurotoxin: KdKv1.2/KdKv1.3: 0.004; KdKv1.2 (nM): 0.8; KdKv1.3 (nM): 180; selectivity: Kv1.2 | CoTX1: KdKv1.2/KdKv1.3: 0.005; KdKv1.2 (nM): 27; K ... || First we aimed at reproducing the effects of natural anuroctoxin with the wild-type toxin produced by solid-state chemical synthesis, denoted as sAnTx. The blocking effect of sAnTx was first tested on Kv1.3 channels expressed by activated human lymphocytes. Channels were activated by depolarizing pulses to +50 mV to maximize the open probability and pulse duration was limited to 15 ms to minimize inactivation. The use of such short pulses prevented cumulative inactivation and allowed us to record the current amplitude every 15 s giving better temporal resolution of the kinetics of block develo ... || (+ 1 further places)

[2] = target: T1, Kv1.3 (Homo sapiens, UniProt P22001); design: endogenous in cells; conditions: for selectivity class: Figure 1, based on ratio of Kd values for Kv1.2 and Kv1.3, ref not given; for block of Kv1.3, in words: toxins with tyrosine at the aromatic dyad position, ref 10 (ChTx), 13 (Css20), 32 (Tst26), 33 (noxiustoxin), 34 (hongotoxin-1), 30 (Pi1)
T1 sequence (P22001 whole entry): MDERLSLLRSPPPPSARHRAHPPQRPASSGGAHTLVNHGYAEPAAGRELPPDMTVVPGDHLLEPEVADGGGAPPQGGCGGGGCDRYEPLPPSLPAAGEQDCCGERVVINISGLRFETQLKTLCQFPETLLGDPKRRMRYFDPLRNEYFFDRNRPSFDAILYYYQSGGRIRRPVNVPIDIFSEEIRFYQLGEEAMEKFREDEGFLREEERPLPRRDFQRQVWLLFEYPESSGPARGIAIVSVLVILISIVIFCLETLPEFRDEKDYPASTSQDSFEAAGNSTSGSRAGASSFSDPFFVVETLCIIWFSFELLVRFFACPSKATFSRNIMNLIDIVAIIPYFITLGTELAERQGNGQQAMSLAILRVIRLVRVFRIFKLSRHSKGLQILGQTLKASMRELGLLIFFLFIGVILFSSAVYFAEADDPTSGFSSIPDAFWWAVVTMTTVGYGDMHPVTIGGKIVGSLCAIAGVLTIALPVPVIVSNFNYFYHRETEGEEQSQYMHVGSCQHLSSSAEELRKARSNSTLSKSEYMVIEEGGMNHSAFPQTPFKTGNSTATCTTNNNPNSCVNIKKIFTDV
Excerpt: as §1, with “(+ 3” for “(+ 1”

[3] = target: T1, Kv1.3
[4] = target: Kv1.2 (Homo sapiens) (UniProt P16389)
Sequence of Kv1.2 (Homo sapiens) (P16389 whole entry): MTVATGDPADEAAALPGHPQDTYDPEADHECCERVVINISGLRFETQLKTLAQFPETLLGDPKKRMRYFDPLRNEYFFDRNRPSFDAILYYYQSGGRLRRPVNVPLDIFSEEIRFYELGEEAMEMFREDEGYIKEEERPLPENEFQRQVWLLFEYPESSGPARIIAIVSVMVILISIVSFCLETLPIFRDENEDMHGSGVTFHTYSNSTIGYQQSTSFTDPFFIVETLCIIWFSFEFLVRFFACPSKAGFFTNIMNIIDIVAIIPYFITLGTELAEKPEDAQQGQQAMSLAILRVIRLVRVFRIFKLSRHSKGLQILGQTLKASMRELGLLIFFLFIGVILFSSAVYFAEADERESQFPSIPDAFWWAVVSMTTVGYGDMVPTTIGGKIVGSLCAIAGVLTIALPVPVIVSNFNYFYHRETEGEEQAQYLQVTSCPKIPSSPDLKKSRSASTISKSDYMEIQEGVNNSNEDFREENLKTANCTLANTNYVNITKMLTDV

[5] = tested on: hKv1.3 H399T
Excerpt: (§2) We first targeted the essential dyad to improve selectivity. […] While the necessity of the dyad lysine was shown for other Kv channels as well[10], the requirement for the aromatic half of the dyad, especially the tyrosine, is not as straightforward for blocking Kv1.3.

[6] = tested on: hKv1.2 V381H
Excerpt: as §2

[7] = Figure 1 sequence comparison, literature toxins, ref not given, read-out: KdKv1.2
[8] = Figure 1 sequence comparison, literature toxins, ref not given
[9] = Figure 1 sequence comparison, literature toxins, ref not given, read-out: KdKv1.3

Sequence of anuroctoxin (P0C166 whole entry): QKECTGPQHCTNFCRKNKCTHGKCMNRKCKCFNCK

| Substance | Kd [1, 7] [nM] | selectivity class [2] | KdKv1.2/KdKv1.3 [2, 8] | Kd [2, 9] [nM] | block of Kv1.3, in words [2] | Kd [3] [nM] | Kd [4] [nM] | Kd ([1]; listed as natural toxin, read-out: Kd Kv1.2 of natural anuroctoxin) [nM] | Kd ([2]; listed as natural toxin, read-out: Kd Kv1.3 of natural anuroctoxin) [nM] | selectivity of the natural toxin for Kv1.3 over Kv1.2 ([2]; natural toxin) [fold] | MTX sensitivity of Kv1.3 with H399T replacement [5] | MTX binding affinity of hKv1.2 with V381H mutation [6] |
| --- | --- | --- | --- | --- | --- | --- | --- | --- | --- | --- | --- | --- |
| Hongotoxin-1 | 0.17 | non-selective (non-selective) | 1.9 | 0.09 | nanomolar range | – | – | – | – | – | – | – |
| Noxiustoxin (TIINVKCTSPKQCSKPCKELYGSSAGAKCMNGKCKCYNN; UniProt P08815 1-39, looked up) [scorpion toxin] | 2 | non-selective (non-selective) | 2 | 1 | nanomolar range | – | – | – | – | – | – | – |
| anuroctoxin (from UniProt P0C166) | – | – | – | – | – | 0.73 | 6.14 | – | – | – | – | – |
| anuroctoxin [AnTx] | 6 | non-selective (non-selective) | 9 | – | – | – | – | 6.1 | 0.7 | 9 | – | – |
| charybdotoxin [ChTx] | 14 | non-selective (non-selective) | 5.4 | 2.6 | nanomolar range | – | – | – | – | – | – | – |
| kaliotoxin [KTX] | > 1000 | Kv1.3 (Kv1.3-selective) | > 1538 | 0.65 | – | – | – | – | – | – | – | – |
| maurotoxin | 0.8 | Kv1.2 (Kv1.2-selective) | 0.004 | 180 | – | – | – | – | – | – | made Kv1.3 sensitive to MTX | drastically reduced MTX binding affinity |
